# From paper PMC9320749, “Synthesis, Molecular Docking Study, and Cytotoxic Activity against MCF Cells of New Thiazole–Thiophene Scaffolds” (Molecules, 2022)
# Read-outs that look alike come from different tables or passages of the source.
# Columns and labels:
# [1] = in vitro; settings: rhesus monkey
# [2] = system: MCF-7; settings: for IC50: read-out: IC50 (μM) MCF-7, MCF-7 breast carcinoma cells, mean of three independent experiments, 72 h incubation
# Procedure: (§1) The results were used to plot a dose–response curve, from which the concentrations of the tested samples required to kill half of the cell population (IC50) were determined. In addition, cytotoxic activities were expressed as the mean IC50 calculated from three independent experiments.
# (§2) The cytotoxic potentials of the newly synthesized compounds was carried out at the Regional Center for Mycology and Biotechnology at Al-Azhar University, Cairo, Egypt. Cells were purchased from the Egyptian Holding Company for Biological Products and Vaccines (VACSERA, Giza, Egypt) and kept in a tissue culture unit. Cells were grown in Roswell Park Memorial Institute (RPMI)-1640 medium supplemented with 10% heat-inactivated fetal bovine serum (FBS), 50 units/mL penicillin, and 50 mg/mL streptomycin, and maintained in a humidified atmosphere containing 5% CO2 [11, 25]. Cells were maintained as monolayer cultures using serial subculture. Cell culture reagents were obtained from Lonza (Basel, Switzerland). The anticancer activities of the rest of the compounds were evaluated in MCF-7 (breast cancer) cells. In addition, the sulforhodamine B (SRB) assay method, as described previously in [39, 40], was used to determine cytotoxicity. Exponentially growing cells were collected using 0.25% trypsin–EDTA and seeded in 96-well plates at 1000–2000 cells/well in RBMI-1640 supplemented medium. After 24 h, cells were incubated for 72 h with various concentrations of the compounds tested. Following 72 h of incubation, the cells were fixed with 10% trichloroacetic acid for 1 h at 4 °C. Wells were stained for 10 min at room temperature with 0.4% sulforhodamine B (SRBC) dissolved in 1% acetic acid. Plates were air-dried for 24 h, and the dye was solubilized with Tris–HCl for 5 min on a shaker at 1600 rpm. The optical density (OD) of each well was measured spectrophotometrically at 564 nm using an ELISA microplate reader (ChroMate-4300, Palm City, FL, USA). IC50 values were calculated using a Boltzmann sigmoidal concentration–response curve using non-linear regression fitting models (Graph Pad, Prism Version 9, GraphPad Software, San Diego, CA, USA).
# [3] = system: MCF-7; test: cells; settings: Homo sapiens, MCF7, 72 h, read-out: IC50 (μM) MCF-7, MCF-7 breast carcinoma cells; mean of three independent experiments; 72 h incubation
# Procedure: as §1, §2
structure (smiles),measurement,setting,value
C/C(=N\N=c1/sc(/N=N/c2ccccc2)c(C)n1N)c1cccs1 [4a],CC50 at 72 h,[1],183 ± 21.3 µM
same,SI Values (CC50/IC50),[2],11.23
same,IC50,[3],16.3 ± 1 µM
C/C(=N\N=c1/sc(/N=N/c2ccc(C)cc2)c(C)n1N)c1cccs1 [4b],CC50 at 72 h,[1],176 ± 18.2 µM
same,IC50,[3],10.2 ± 0.8 µM
C/C(=N\N=c1/sc(/N=N/c2ccc(Cl)cc2)c(C)n1N)c1cccs1 [4c],IC50,[3],19.7 ± 1.3 µM
same,melting point,,205 to 207 °C
C/C(=N\N=c1/sc(/N=N/c2ccc(Cl)cc2Cl)c(C)n1N)c1cccs1 [4d],IC50,[3],19.8 ± 0.9 µM
same,melting point,,227 to 229 °C
"CC(=NN=C1SC(=NNc2ccc(C)cc2)C(=O)N1N)c1cccs1 [8a, 3-Amino-2-[(1-(thiophen-2-yl)ethylidene)hydrazineylidene]-5-(2-(p-tolyl)hydrazineylidene) thiazolidin-4-one]",CC50 at 72 h,[1],149 ± 15.9 µM
same,SI Values (CC50/IC50),[2],10.99
same,IC50,[3],13.6 ± 0.9 µM
"CC(=NN=C1SC(=NNc2ccc(Cl)cc2)C(=O)N1N)c1cccs1 [8b, 3-Amino-5-(2-(4-chlorophenyl)hydrazineylidene)-2-[(1-(thiophen-2-yl)ethylidene) hydrazineylidene]thiazolidin-4-one]",IC50,[3],23.7 ± 1.6 µM
same,melting point,,177 to 179 °C
C/C(=N\N=c1/scc(-c2ccccc2)n1N)c1cccs1 [11a],IC50,[3],21 ± 0.7 µM
same,melting point,,166 to 168 °C
C/C(=N\N=c1/scc(-c2ccc(C)cc2)n1N)c1cccs1 [11b],CC50 at 72 h,[1],231 ± 25 µM
same,SI Values (CC50/IC50),[2],12.93
same,IC50,[3],17.9 ± 0.8 µM
C/C(=N\N=c1/scc(-c2ccc(Cl)cc2)n1N)c1cccs1 [11c],IC50,[2],38.2 ± 1.4 µM
same,IC50,[3],> 38 µM
same,melting point,,180 to 182 °C
C/C(=N\N=c1/scc(-c2ccc([N+](=O)[O-])cc2)n1N)c1cccs1 [11d],IC50,[2],54.8 ± 1.6 µM
same,IC50,[3],> 38 µM
same,melting point,,194 to 196 °C
"CC(=O)c1sc(=NN=C(C)c2cccs2)n(N)c1C [13a, 1-[3-Amino-4-methyl-2-((1-(thiophen-2-yl)ethylidene)hydrazineylidene]-2,3-dihydrothiazol-5-yl)ethan-1-one]",CC50 at 72 h,[1],163 ± 19.1 µM
same,SI Values (CC50/IC50),[2],14.14
same,IC50,[3],11.5 ± 0.8 µM
CCOC(=O)c1s/c(=N\N=C(/C)c2cccs2)n(N)c1C [13b],CC50 at 72 h,[1],135 ± 9.58 µM
same,SI Values (CC50/IC50),[2],8.29
same,IC50,[3],16.3 ± 1.4 µM
"N.N.[Cl][Pt][Cl] [Cisplatin, cisplatin, reference compound]",IC50,[2],13.3 ± 0.61 µM
